According to patent US8338482B2, “Modulating notch1 signaling pathway for treating neuroendocrine tumors” (Wisconsin Alumni Research Foundation, priority 2007, dated 2012):

Assays:
[1] = test system: BON human GI carcinoid cancer cells; assay: Western blot analysis of GI carcinoid cells; type: cell-based
Experimental: Cell Culture BON human GI carcinoid cancer cells, kindly provided by Drs. B. Mark Evers and Courtney M. Townsend, Jr.
Total protein concentrations were quantified with a bicinchoninic acid assay kit (Pierce Biotechnology, Rockford, Ill., USA). Denatured cellular extracts were resolved by SDS-PAGE, transferred to nitrocellulose membranes (Schleicher and Schuell, Keene, N.H., USA), blocked in milk, and incubated with appropriate antibodies. The antibody dilutions were: 1:1,000 for Notch1 (Santa Cruz Biotechnology, Santa Cruz, Calif., USA), mammalian achaete-scute homolog 1 (ASCL1; BD Biosciences, San Diego, Calif., USA), chromogranin A (Zymed Laboratories, San Francisco, Calif., USA), and cyclin D1 (Cell Signaling Technology, Danvers, Mass., USA), 1:2,000 for p21 (Cell Signaling Technology) and p27 (Santa Cruz Biotechnology), and 1:10,000 for glyceraldehyde-3-phosphate dehydrogenase (G3PDH; Trevigen, Gaithersburg, Md., USA). Horseradish peroxidase conjugated goat anti-rabbit or goat anti-mouse secondary antibodies (Pierce Biotechnology) were used depending on the source of the primary antibody. For visualization of the protein signal, Immunstar (Bio-Rad Laboratories, Hercules, Calif., USA) or SuperSignal West Femto (Pierce Biotechnology) kits were used per the manufacturer's instructions.
Cell Culture BON human gastrointestinal (GI) carcinoid tumor cells, kindly provided by Drs. B. Mark Evers and Courtney M. Townsend, Jr.
Total protein concentrations were quantified with a bicinchoninic acid assay kit (Pierce Biotechnology, Rockford, Ill.). Denatured cellular extracts were resolved by SDS-PAGE, transferred onto nitrocellulose membranes (Schleicher and Schuell, Keene, N H), blocked in milk, and incubated with appropriate antibodies. The antibody dilutions were: 1:1,000 for Notch1 (Santa Cruz Biotechnology, Santa Cruz, Calif.), mammalian achaete-scute homolog 1 (ASCL1; BD Biosciences, San Diego, Calif.), chromogranin A (Zymed Laboratories, San Francisco, Calif.), and cyclin D1 (Cell Signaling Technology, Danvers, Mass.), 1:2,000 for p21 (Cell Signaling Technology) and p27 (Santa Cruz Biotechnology), and 1:10,000 for glyceraldehyde-3-phosphate dehydrogenase (G3PDH; Trevigen, Gaithersburg, Md.). Horseradish peroxidase conjugated goat anti-rabbit or goat anti-mouse secondary antibodies (Pierce Biotechnology) were used depending on the source of the primary antibody. For visualization of the protein signal, Immunstar (Bio-Rad Laboratories, Hercules, Calif.) or SuperSignal West Femto (Pierce Biotechnology) kits were used per the manufacturer's instructions.

[2] = test system: BON human GI carcinoid cancer cells; assay: MTT cell proliferation assay, GI carcinoid cells; type: cell-based
Description: Cell Culture BON human GI carcinoid cancer cells, kindly provided by Drs. B. Mark Evers and Courtney M. Townsend, Jr. (University of Texas Medical Branch, Galveston, Tex., USA), and H727 human lung carcinoid cancer cells (American Type Tissue Collection, Manassas, Va., USA) were maintained as previously described (Sippel, R S et al., Raf-1 Activation Suppresses neuroendocrine marker and hormone levels in human gastrointestinal carcinoid cells. Am J Physiol Gastrointest Liver Physiol. 2003 August; 285(2):G245-54, Van Gompel J J et al., ZM336372, A Raf-1 Activator, Suppresses Growth and Neuroendocrine Hormone Levels in Carcinoid Tumor Cells. Mol Cancer Ther. 2005 June; 4(6):910-7)
Cell Proliferation Assay Carcinoid cancer cell proliferation was measured by the MTT (thiazolyl blue tetrazolium bromide; Sigma-Aldrich, St. Louis, Mo., USA) rapid calorimetric assay as previously described (Van Gompel J J et al., ZM336372, A Raf-1 Activator, Suppresses Growth and Neuroendocrine Hormone Levels in Carcinoid Tumor Cells. Mol Cancer Ther. 2005 June; 4(6):910-7). Briefly, cells were seeded in quadruplicate on 24-well plates and incubated for 24 hours to allow cell attachment. The cells were then treated with SBHA (Sigma-Aldrich) in concentrations of 0 to 50 μM and incubated for up to 6 days. The MTT assay was performed by replacing the standard medium with 250 μL of serum-free medium containing MTT (0.5 mg/mL) and incubated at 37° C. for 3 hours. After incubation, 750 μL of dimethyl sulfoxide (Sigma-Aldrich) was added to each well and mixed thoroughly. The plates were then measured at 540 nm using a spectrophotometer (μQuant; Bio-Tek Instruments, Winooski, Vt., USA).
Cell Culture BON human gastrointestinal (GI) carcinoid tumor cells, kindly provided by Drs. B. Mark Evers and Courtney M. Townsend, Jr. […]
Cell Proliferation Assay Carcinoid tumor cell proliferation was measured by the MTT (methylthiazolyldiphenyl-tetrazolium bromide; Sigma-Aldrich, St. Louis, Mo.) rapid colorimetric assay as previously described (Van Gompel J J et al., ZM336372, A Raf-1 Activator, Suppresses Growth and Neuroendocrine Hormone Levels in Carcinoid Tumor Cells. Mol Cancer Ther 2005; 4:910-917). […] The plates were then measured at 540 nm using a spectrophotometer (μQuant; Bio-Tek Instruments, Winooski, Vt.).

CCCC(CCC)C(=O)O [VPA, 2-propylpentanoic acid]
ASCL1 protein ([1]; VPA): dose-dependent decrease | full-length Notch1 and NICD ([1]; VPA 0-4 mM, 2 days): increase | protein levels of p21 and p27 ([1]; VPA 1 mM): increase in protein levels | cyclin D1 level ([1]; VPA 4 mM, 4 days): almost undetectable | protein levels of CgA ([1]; VPA, two days): decreased | inhibition at 1000 µM ([2]; Homo sapiens, 144 h, 1 mM, 6 days of treatment, read-out: growth inhibition relative to untreated cells): 50% | cell growth ([2]; VPA 0 to 4 mM, up to 6 days): profound dose-dependent inhibition of growth
